From US20240239861A1, “GLUCAGON-RECEPTOR SELECTIVE POLYPEPTIDES AND METHODS OF USE THEREOF” (i2O Therapeutics, Inc., priority 2016, published 2024)
Where a SMILES comes first, the peptide text is derived from it. [ ]: non-standard residue; d: D form. Aib = CC(C)(N)C(=O)O

These molecules were tested against human GLP-1R (Homo sapiens, UniProt P43220) (assay: Peptide-receptor mediated cAMP accumulation (LANCE Ultra cAMP) in CHO-K1 cells transfected with human GLP-1R). Details: hGLP1 pEC50 (cAMP mean (n = 3): 11 point curve starting at 1 nM, Table 3).
Format: cell-based

human GLP-1R, sequence (P43220 24-463): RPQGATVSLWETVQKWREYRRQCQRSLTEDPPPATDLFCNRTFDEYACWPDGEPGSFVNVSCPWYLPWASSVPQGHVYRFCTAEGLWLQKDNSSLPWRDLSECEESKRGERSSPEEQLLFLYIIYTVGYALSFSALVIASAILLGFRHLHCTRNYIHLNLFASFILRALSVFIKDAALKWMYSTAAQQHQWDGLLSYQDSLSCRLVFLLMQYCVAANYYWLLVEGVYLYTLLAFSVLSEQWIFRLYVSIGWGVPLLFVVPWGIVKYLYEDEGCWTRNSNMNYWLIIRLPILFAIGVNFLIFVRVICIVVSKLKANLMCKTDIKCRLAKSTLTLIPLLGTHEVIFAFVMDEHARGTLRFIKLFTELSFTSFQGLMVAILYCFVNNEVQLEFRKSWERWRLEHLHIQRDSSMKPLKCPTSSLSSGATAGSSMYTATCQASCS

SMILES	EC50
CC(C)C[C@H](NC(=O)[C@H](Cc1ccc(O)cc1)NC(=O)[C@H](CCCCN)NC(=O)[C@H](CO)NC(=O)[C@H](Cc1ccc(O)cc1)NC(=O)[C@H](CC(=O)O)NC(=O)[C@H](CO)NC(=O)[C@@H](NC(=O)[C@H](Cc1ccccc1)NC(=O)[C@@H](NC(=O)CNC(=O)[C@H](Cc1c[nH]cn1)NC(=O)[C@H](CO)NC(=O)[C@@H](N)Cc1ccc(O)cc1)[C@@H](C)O)[C@@H](C)O)C(=O)N[C@@H](CC(=O)O)C(=O)NC(C)(C)C(=O)N[C@@H](CCCCN)C(=O)N[C@@H](CCCNC(=N)N)C(=O)N[C@@H](C)C(=O)N[C@@H](CCC(N)=O)C(=O)N[C@@H](CCC(=O)O)C(=O)N[C@@H](Cc1ccccc1)C(=O)N[C@H](C(=O)NC(C)(C)C(=O)N[C@@H](Cc1c[nH]c2ccccc12)C(=O)N[C@@H](CC(C)C)C(=O)N[C@@H](CCC(=O)O)C(=O)N[C@@H](CC(=O)O)C(=O)N[C@@H](CCC(=O)O)C(=O)NCC(=O)NCC(=O)N1CCC[C@H]1C(=O)N[C@@H](CO)C(=O)N[C@@H](CO)C(=O)NCC(=O)N[C@@H](C)C(=O)N1CCC[C@H]1C(=O)N1CCC[C@H]1C(=O)N1CCC[C@H]1C(=O)N[C@@H](CO)C(=O)O)C(C)C [Compound A27] (H-YSHGTFTSDYSKYLD[Aib]KRAQEFV[Aib]WLEDEGGPSSGAPPPS-OH; N-terminus assumed)	> 1 nM
CC(C)C[C@H](NC(=O)[C@H](Cc1ccc(O)cc1)NC(=O)[C@H](CCCCN)NC(=O)[C@H](CO)NC(=O)[C@H](Cc1ccc(O)cc1)NC(=O)[C@H](CC(=O)O)NC(=O)[C@H](CO)NC(=O)[C@@H](NC(=O)[C@H](Cc1ccccc1)NC(=O)[C@@H](NC(=O)CNC(=O)[C@H](Cc1c[nH]cn1)NC(=O)[C@H](CO)NC(=O)[C@@H](N)Cc1ccc(O)cc1)[C@@H](C)O)[C@@H](C)O)C(=O)N[C@@H](CC(=O)O)C(=O)NC(C)(C)C(=O)N[C@@H](CCCCN)C(=O)N[C@@H](CCCNC(=N)N)C(=O)N[C@@H](C)C(=O)N[C@@H](CCC(N)=O)C(=O)N[C@@H](CCC(=O)O)C(=O)N[C@@H](Cc1ccccc1)C(=O)N[C@H](C(=O)NC(C)(C)C(=O)N[C@@H](Cc1c[nH]c2ccccc12)C(=O)N[C@@H](CC(C)C)C(=O)N[C@@H](CCC(=O)O)C(=O)N[C@@H](CC(=O)O)C(=O)N[C@@H](CCC(=O)O)C(=O)N[C@@H](CO)C(=O)NCC(=O)N[C@@H](C)C(=O)N1CCC[C@H]1C(=O)N1CCC[C@H]1C(=O)N1CCC[C@H]1C(=O)N[C@@H](CO)C(=O)O)C(C)C [Compound A13] (H-YSHGTFTSDYSKYLD[Aib]KRAQEFV[Aib]WLEDESGAPPPS-OH; N-terminus assumed)	> 1 nM
CC(C)C[C@H](NC(=O)[C@H](Cc1c[nH]c2ccccc12)NC(=O)[C@H](CCCCN)NC(=O)[C@H](CO)NC(=O)[C@H](Cc1ccc(O)cc1)NC(=O)[C@H](CC(=O)O)NC(=O)[C@H](CO)NC(=O)[C@@H](NC(=O)[C@H](Cc1ccccc1)NC(=O)[C@@H](NC(=O)CNC(=O)[C@H](Cc1c[nH]cn1)NC(=O)[C@@H](NC(=O)[C@@H](N)Cc1ccc(O)cc1)[C@@H](C)O)[C@@H](C)O)[C@@H](C)O)C(=O)N[C@@H](CC(=O)O)C(=O)NC(C)(C)C(=O)N[C@@H](CCCCN)C(=O)N[C@@H](CCCNC(=N)N)C(=O)N[C@@H](C)C(=O)N[C@@H](CCC(N)=O)C(=O)N[C@@H](CCC(=O)O)C(=O)N[C@@H](Cc1ccccc1)C(=O)N[C@H](C(=O)NC(C)(C)C(=O)N[C@@H](Cc1c[nH]c2ccccc12)C(=O)N[C@@H](CC(C)C)C(=O)N[C@@H](CCC(=O)O)C(=O)N[C@@H](CC(=O)O)C(=O)N[C@@H](CCC(=O)O)C(=O)N1CCC[C@H]1C(=O)N[C@@H](CO)C(=O)N[C@@H](CO)C(=O)NCC(=O)N[C@@H](C)C(=O)N1CCC[C@H]1C(=O)N1CCC[C@H]1C(=O)N1CCC[C@H]1C(=O)N[C@@H](CO)C(=O)O)C(C)C [Compound A32] (H-YTHGTFTSDYSKWLD[Aib]KRAQEFV[Aib]WLEDEPSSGAPPPS-OH; N-terminus assumed)	> 1 nM

Results, then the molecule that gave them:

EC50	SMILES
> 1 nM	CC(C)C[C@H](NC(=O)[C@H](Cc1ccc(O)cc1)NC(=O)[C@H](CCCCN)NC(=O)[C@H](CO)NC(=O)[C@H](Cc1ccc(O)cc1)NC(=O)[C@H](CC(=O)O)NC(=O)[C@H](CO)NC(=O)[C@@H](NC(=O)[C@H](Cc1ccccc1)NC(=O)[C@@H](NC(=O)CNC(=O)[C@H](Cc1c[nH]cn1)NC(=O)[C@H](CO)NC(=O)[C@@H](N)Cc1ccc(O)cc1)[C@@H](C)O)[C@@H](C)O)C(=O)N[C@@H](CC(=O)O)C(=O)NC(C)(C)C(=O)N[C@@H](CCCCN)C(=O)N[C@@H](CCCNC(=N)N)C(=O)N[C@@H](C)C(=O)N[C@@H](CCC(N)=O)C(=O)N[C@@H](CCC(=O)O)C(=O)N[C@@H](Cc1ccccc1)C(=O)N[C@H](C(=O)NC(C)(C)C(=O)N[C@@H](Cc1c[nH]c2ccccc12)C(=O)N[C@@H](CC(C)C)C(=O)N[C@@H](CCC(=O)O)C(=O)N[C@@H](CC(=O)O)C(=O)N[C@@H](CCC(=O)O)C(=O)N[C@@H](CCCCN)C(=O)N[C@@H](CO)C(=O)N[C@@H](CO)C(=O)NCC(=O)N[C@@H](CCCCN)C(=O)N1CCC[C@H]1C(=O)N1CCC[C@H]1C(=O)N1CCC[C@H]1C(=O)N[C@@H](CO)C(=O)O)C(C)C [Compound A87] (H-YSHGTFTSDYSKYLD[Aib]KRAQEFV[Aib]WLEDEKSSGKPPPS-OH; N-terminus assumed)
> 1 nM	CC(C)C[C@H](NC(=O)[C@H](Cc1ccc(O)cc1)NC(=O)[C@H](CCCCN)NC(=O)[C@H](CO)NC(=O)[C@H](Cc1ccc(O)cc1)NC(=O)[C@H](CC(=O)O)NC(=O)[C@H](CO)NC(=O)[C@@H](NC(=O)[C@H](Cc1ccccc1)NC(=O)[C@@H](NC(=O)CNC(=O)[C@H](CCC(N)=O)NC(=O)[C@H](CO)NC(=O)[C@@H](N)Cc1ccc(O)cc1)[C@@H](C)O)[C@@H](C)O)C(=O)N[C@@H](CC(=O)O)C(=O)NC(C)(C)C(=O)N[C@@H](CCCCN)C(=O)N[C@@H](C)C(=O)N[C@@H](C)C(=O)N[C@@H](CCC(N)=O)C(=O)N[C@@H](CCC(=O)O)C(=O)N[C@@H](Cc1ccccc1)C(=O)N[C@H](C(=O)NC(C)(C)C(=O)N[C@@H](Cc1c[nH]c2ccccc12)C(=O)N[C@@H](CC(C)C)C(=O)N[C@@H](CCC(=O)O)C(=O)N[C@@H](CC(=O)O)C(=O)N[C@@H](CCC(=O)O)C(=O)N1CCC[C@H]1C(=O)N[C@@H](CO)C(=O)N[C@@H](CO)C(=O)NCC(=O)N[C@@H](CCCCN)C(=O)N1CCC[C@H]1C(=O)N1CCC[C@H]1C(=O)N1CCC[C@H]1C(=O)N[C@@H](CO)C(=O)O)C(C)C [Compound A96] (H-YSQGTFTSDYSKYLD[Aib]KAAQEFV[Aib]WLEDEPSSGKPPPS-OH; N-terminus assumed)
> 1 nM	CC(C)C[C@H](NC(=O)[C@H](Cc1ccc(O)cc1)NC(=O)[C@H](CCCCN)NC(=O)[C@H](CO)NC(=O)[C@H](Cc1ccc(O)cc1)NC(=O)[C@H](CC(=O)O)NC(=O)[C@H](CO)NC(=O)[C@@H](NC(=O)[C@H](Cc1ccccc1)NC(=O)[C@@H](NC(=O)CNC(=O)[C@H](Cc1c[nH]cn1)NC(=O)[C@H](CO)NC(=O)[C@@H](N)Cc1ccc(O)cc1)[C@@H](C)O)[C@@H](C)O)C(=O)N[C@@H](CC(=O)O)C(=O)NC(C)(C)C(=O)N[C@@H](CCCCN)C(=O)N[C@@H](CCCNC(=N)N)C(=O)N[C@@H](C)C(=O)N[C@@H](CCC(N)=O)C(=O)N[C@@H](CCC(=O)O)C(=O)N[C@@H](Cc1ccccc1)C(=O)N[C@H](C(=O)NC(C)(C)C(=O)N[C@@H](Cc1c[nH]c2ccccc12)C(=O)N[C@@H](CC(C)C)C(=O)N[C@@H](CCC(=O)O)C(=O)N[C@@H](CC(=O)O)C(=O)N[C@@H](CCC(=O)O)C(=O)N1CCC[C@H]1C(=O)N[C@@H](CO)C(=O)N[C@@H](CO)C(=O)NCC(=O)N[C@@H](CCCCN)C(=O)N1CCC[C@H]1C(=O)N1CCC[C@H]1C(=O)N1CCC[C@H]1C(=O)N[C@@H](CO)C(N)=O)C(C)C [Compound A85] (H-YSHGTFTSDYSKYLD[Aib]KRAQEFV[Aib]WLEDEPSSGKPPPS-NH2; N-terminus assumed)
> 1 nM	CC[C@H](C)[C@H](NC(=O)[C@@H]1CCCN1C(=O)[C@@H]1CCCN1C(=O)[C@H](CCCCN)NC(=O)[C@H](CC(N)=O)NC(=O)[C@H](CCCNC(=N)N)NC(=O)[C@H](CCCCN)NC(=O)[C@H](CCC(=O)O)NC(=O)[C@H](CC(=O)O)NC(=O)[C@H](CCC(=O)O)NC(=O)[C@H](CC(C)C)NC(=O)[C@H](Cc1c[nH]c2ccccc12)NC(=O)C(C)(C)NC(=O)[C@@H](NC(=O)[C@H](Cc1ccccc1)NC(=O)[C@H](CCC(=O)O)NC(=O)[C@H](CCC(N)=O)NC(=O)[C@H](C)NC(=O)[C@H](CCCNC(=N)N)NC(=O)[C@H](CCCCN)NC(=O)C(C)(C)NC(=O)[C@H](CC(=O)O)NC(=O)[C@H](CC(C)C)NC(=O)[C@H](Cc1ccc(O)cc1)NC(=O)[C@H](CCCCN)NC(=O)[C@H](CO)NC(=O)[C@H](Cc1ccc(O)cc1)NC(=O)[C@H](CC(=O)O)NC(=O)[C@H](CO)NC(=O)[C@@H](NC(=O)[C@H](Cc1ccccc1)NC(=O)[C@@H](NC(=O)CNC(=O)[C@H](Cc1c[nH]cn1)NC(=O)[C@H](CO)NC(=O)[C@@H](N)Cc1ccc(O)cc1)[C@@H](C)O)[C@@H](C)O)C(C)C)C(=O)N[C@@H](C)C(=O)O [Compound A46] (H-YSHGTFTSDYSKYLD[Aib]KRAQEFV[Aib]WLEDEKRNKPPIA-OH; N-terminus assumed)
> 1 nM	CC(C)C[C@H](NC(=O)[C@H](Cc1ccc(O)cc1)NC(=O)[C@H](CCCCN)NC(=O)[C@H](CO)NC(=O)[C@H](Cc1ccc(O)cc1)NC(=O)[C@H](CC(=O)O)NC(=O)[C@H](CO)NC(=O)[C@@H](NC(=O)[C@H](Cc1ccccc1)NC(=O)[C@@H](NC(=O)CNC(=O)[C@H](Cc1c[nH]cn1)NC(=O)[C@H](CO)NC(=O)[C@@H](N)Cc1ccc(O)cc1)[C@@H](C)O)[C@@H](C)O)C(=O)N[C@@H](CC(=O)O)C(=O)NC(C)(C)C(=O)N[C@@H](CCCCN)C(=O)N[C@@H](CCCNC(=N)N)C(=O)N[C@@H](C)C(=O)N[C@@H](CCC(N)=O)C(=O)N[C@@H](CCC(=O)O)C(=O)N[C@@H](Cc1ccccc1)C(=O)N[C@H](C(=O)NC(C)(C)C(=O)N[C@@H](Cc1c[nH]c2ccccc12)C(=O)N[C@@H](CC(C)C)C(=O)N[C@@H](CCC(=O)O)C(=O)N[C@@H](CC(=O)O)C(=O)N[C@@H](CCC(=O)O)C(=O)N1CCC[C@H]1C(=O)N[C@@H](CCCCN)C(=O)N[C@@H](CO)C(=O)N[C@@H](CCCCN)C(=O)N[C@@H](CO)C(=O)N1CCC[C@H]1C(=O)N1CCC[C@H]1C(=O)N1CCC[C@H]1C(=O)N[C@@H](CO)C(N)=O)C(C)C [Compound A66] (H-YSHGTFTSDYSKYLD[Aib]KRAQEFV[Aib]WLEDEPKSKSPPPS-NH2; N-terminus assumed)
